The values that follow are results of earlier work, collected in patent publication EP0719130B1, “COMPLEX CALCIUM AND FLUORIDE CONTAINING MOUTH RINSES, DENTIFRICES, AND CHEWABLE TABLETS” (AMERICAN DENTAL ASSOCIATION HEALTH FOUNDATION, priority 1993, dated 1995).

For this data set the following is noted: buffer acid or salt.
In the case of `O=S(=O)(O)CCN1CCN(CCO)CC1` [HEPES], the pK is listed as 7.4.
As to `OCC(O)CO` [glycerol], the pK was 14.15.
For tyrosine salts, the pK was 8.4.
